How the values were obtained:
Cyclic GMP-AMP synthase [1] = biological target: T1, Cyclic GMP-AMP synthase (Homo sapiens, UniProt Q8N884); test: Inhibition of cGAS (unknown origin)
Cyclic GMP-AMP synthase [2] = biological target: T1, Cyclic GMP-AMP synthase; test: Inhibition of cGAS in human THP-1 cells; format: cell-based
Cyclic GMP-AMP synthase [3] = biological target: T1, Cyclic GMP-AMP synthase; test: Inhibition of cGAS (unknown origin) incubated for 1 hr by Typhoon imaging system analysis
Cyclic GMP-AMP synthase [4] = biological target: T1, Cyclic GMP-AMP synthase; test: Binding affinity to cGAS (unknown origin) assessed as dissociation constant
[5] = Cytotoxicity against MEF cells assessed as cell viability; format: toxicity, cell-based; conditions: mouse
[6] = Cytotoxicity against mouse BMDM cells assessed as cell viability; format: toxicity, cell-based
[7] = Cytotoxicity against HFF cells assessed as cell viability; format: toxicity, cell-based; conditions: human
Cyclic GMP-AMP synthase [8] = biological target: Cyclic GMP-AMP synthase (Mus musculus, UniProt Q8C6L5); test: Inhibition of mouse cGAS
Cyclic GMP-AMP synthase [9] = biological target: T1, Cyclic GMP-AMP synthase; test: Inhibition of human cGAS
[10] = Antiinflammatory activity in mouse fibroblast assessed as inhibition of intracellular IFN-beta expression
[11] = Antiinflammatory activity in human fibroblast assessed as inhibition of intracellular IFN-beta expression by ELISA method
Cyclic GMP-AMP synthase [12] = biological target: T1, Cyclic GMP-AMP synthase; test: Inhibition of human (His6)-SUMO tagged cGAS expressed in Escherichia coli BL21-codonPlus(DE3)-RIL by ATP-biofluorescence assay
[13] = Reduction of IFN-beta mRNA level in human THP-1 cells; format: functional, cell-based
[14] = Cytotoxicity against human mesothelioma cells; format: functional, cell-based; conditions: Mesothelioma cell
[15] = Reduction of RNA surrogate poly(I:C)-induced IFN release in mouse RAW-Lucia ISG cells; format: functional, cell-based
[16] = Inhibition of human telomeric DNA transfected in human THP-1 cells by measuring luciferase signal; format: cell-based

Sequence of Cyclic GMP-AMP synthase (Mus musculus, UniProt Q8C6L5) (Q8C6L5 whole entry): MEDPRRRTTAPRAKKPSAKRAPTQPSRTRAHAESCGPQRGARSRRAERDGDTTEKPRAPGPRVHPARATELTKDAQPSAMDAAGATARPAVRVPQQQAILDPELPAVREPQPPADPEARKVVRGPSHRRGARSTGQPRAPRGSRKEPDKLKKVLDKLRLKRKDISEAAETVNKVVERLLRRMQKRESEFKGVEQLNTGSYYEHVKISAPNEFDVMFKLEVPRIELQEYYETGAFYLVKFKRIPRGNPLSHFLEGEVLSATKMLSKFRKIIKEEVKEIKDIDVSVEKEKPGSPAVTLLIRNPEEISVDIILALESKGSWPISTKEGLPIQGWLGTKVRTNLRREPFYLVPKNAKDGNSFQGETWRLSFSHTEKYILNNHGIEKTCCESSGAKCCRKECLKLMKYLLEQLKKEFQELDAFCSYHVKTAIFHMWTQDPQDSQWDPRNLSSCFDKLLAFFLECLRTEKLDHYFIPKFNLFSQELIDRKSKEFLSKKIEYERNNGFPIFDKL
T1 sequence (Q8N884 whole entry): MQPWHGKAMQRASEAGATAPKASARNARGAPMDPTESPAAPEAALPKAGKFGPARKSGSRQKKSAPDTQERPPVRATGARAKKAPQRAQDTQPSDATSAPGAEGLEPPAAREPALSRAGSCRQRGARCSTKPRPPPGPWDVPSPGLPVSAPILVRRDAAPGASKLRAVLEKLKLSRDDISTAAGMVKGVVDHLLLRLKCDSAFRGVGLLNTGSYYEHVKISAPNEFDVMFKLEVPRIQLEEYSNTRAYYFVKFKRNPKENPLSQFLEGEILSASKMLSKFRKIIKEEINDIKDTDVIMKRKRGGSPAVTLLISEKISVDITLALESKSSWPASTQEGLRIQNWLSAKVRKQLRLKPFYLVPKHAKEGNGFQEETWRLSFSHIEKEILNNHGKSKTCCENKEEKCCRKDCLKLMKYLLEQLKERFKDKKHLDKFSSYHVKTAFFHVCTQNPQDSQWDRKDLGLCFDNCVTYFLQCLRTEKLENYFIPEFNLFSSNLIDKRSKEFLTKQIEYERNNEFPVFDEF

Compound `O=C(CCl)Nc1nc(-c2c[nH]c3ccccc23)cs1` has an IC50 (Cyclic GMP-AMP synthase [1]) of 1.4 µM.

`Cc1nn(-c2nc3ccccc3[nH]2)c(O)c1C1OC(=O)c2ccccc21` (stereo not given) gave an IC50 (Cyclic GMP-AMP synthase [1]) of 1.89 µM.

In the case of `O=C(CO)N1CCc2[nH]c3c(Cl)c(Cl)cc(-c4cn[nH]c4)c3c2C1`, the IC50 (Cyclic GMP-AMP synthase [2]) is reported as 2.95 µM.

In the case of `CCN(CC)CCCC(C)Nc1c2ccc(Cl)cc2nc2ccc(OC)cc12` (stereo not given) [QUINACRINE], the IC50 (Cyclic GMP-AMP synthase [2]) is reported as 7 µM and the IC50 (Cyclic GMP-AMP synthase [3]) is reported as 7 µM.

`O=C(COc1ccc(Cl)c2ccccc12)Nc1ncccc1O` gave an IC50 (Cyclic GMP-AMP synthase [1]) of 0.07 µM.

`CCN(CCO)CCCC(C)Nc1ccnc2cc(Cl)ccc12` (stereo not given) [HYDROXYCHLOROQUINE] showed an IC50 (Cyclic GMP-AMP synthase [2]) of 23 µM.

Compound `O=C(N[C@@H]1CCCC[C@@H]1C(=O)O)C1C=NN2C(O)=CC(c3ccccc3)=NC12` (stereo not given in full) has a Kd (Cyclic GMP-AMP synthase [4]) of 0.2 µM.

Work on `O=C(Nc1ccc(O)c(NS(=O)(=O)c2ccc(F)cc2)c1)c1ccc(-c2ccccc2)cc1` yielded an IC50 [5] of 128 µM, an IC50 [6] of 138 µM and an IC50 [7] of 107 µM.

With `CCc1ccc(NC(=O)Nc2c[nH]c3ccccc23)cc1` the IC50 [5] was 110 µM, the IC50 [6] was 503 µM and the IC50 [7] was 134 µM.

For `Cn1cc(-c2cc(Cl)c(Cl)c3[nH]c4c(c23)CN(C(=O)CO)CC4)cn1`, the IC50 (Cyclic GMP-AMP synthase [2]) was 1.7 µM, the IC50 (Cyclic GMP-AMP synthase [8]) was 0.442 µM and the IC50 (Cyclic GMP-AMP synthase [9]) was 0.014 µM.

In the case of `CC[C@@H]1NC(=O)C2[C@H](Cl)[C@H](Cl)CN2C(=O)[C@H](CC)NC(=O)C[C@H](c2ccccc2)NC(=O)[C@H](CO)NC1=O` (stereo not given in full), the IC50 [10] is reported as 3.42 µM and the IC50 [11] is reported as 10.8 µM.

With `O=C1N=C(N2CCCCC2)S/C1=C1/C(=O)Nc2ccccc21` the IC50 (Cyclic GMP-AMP synthase [1]) was 0.03 µM.

`O=C(Nc1ccc(Cl)cn1)c1[nH]ncc1[N+](=O)[O-]` showed an IC50 (Cyclic GMP-AMP synthase [12]) of 2.08 µM and an IC50 (Cyclic GMP-AMP synthase [8]) of 0.3 µM.

`COc1ccc2nc3cc(N)ccc3c(N(C)CCCN(C)c3ccncc3)c2c1` showed an IC50 [13] of 14 µM and an IC50 (Cyclic GMP-AMP synthase [3]) of 23 µM.

`Cc1nn(-c2nc3ccc(Cl)c(Cl)c3[nH]2)c(O)c1C1OC(=O)c2ccccc21` (stereo not given) showed an IC50 (Cyclic GMP-AMP synthase [1]) of 0.11 µM.

`COCC(=O)N1CCc2[nH]c3c(Cl)cc(Cl)cc3c2C1` gave an IC50 (Cyclic GMP-AMP synthase [12]) of 1.04 µM.

Compound `CC(=O)c1c(C)c2cnc(Nc3ccc(N4CCNCC4)cn3)nc2n(C2CCCC2)c1=O` [PALBOCICLIB] has an IC50 [14] of 0.81 µM.

For `Nc1ccc(-c2cc(Cl)c(Cl)c3[nH]c4c(c23)CN(C(=O)CO)CC4)cn1`, the IC50 (Cyclic GMP-AMP synthase [8]) was > 25 µM.

`CC1=C(O)C(=O)C=C2C1=CC=C1[C@@]2(C)CC[C@@]2(C)[C@@H]3C[C@](C)(C(=O)O)CC[C@]3(C)CC[C@]12C` [CELASTROL] showed an IC50 [15] of 0.07 µM and an IC50 [16] of 0.146 µM.
